Measurements taken from US7759510B2, “Platinum complexes and methods of use” (University of South Florida, priority 2003, dated 2010).

Legend:
Stat3 = biological target: T1, Stat3 (Mus musculus, UniProt P42227); assay: EMSA of nuclear extracts, Stat3 DNA-binding activity to hSIE probe; assay type: biochemical; conditions: in vitro
T1 construct: Nuclear extracts were prepared from NIH3T3/hEGFR cell that overexpress human epidermal growth factor (EGF) receptor and stimulated with EGF; endogenous in cells; host or cells: NIH3T3/hEGFR fibroblasts, EGF-stimulated (6 ng/ml, 15 min), nuclear extract
Protocol: Nuclear Extract Preparation and Analysis by EMSA of HK-Designated Platinum Complexes.
Nuclear extracts were prepared from NIH3T3/hEGFR cell that overexpress human epidermal growth factor (EGF) receptor and stimulated with EGF (6 ng/ml) for 15 min. Nuclear extracts were pre-incubated with compounds for 30 min at room temperature prior to incubation with radiolabeled probe. The ^32P-labeled oligonucleotide probe used is hSIE (high affinity sis-inducible element, m67 variant, 5′-[…]-3′) (SEQ ID NO:1) that binds both Stat1 and Stat3.
Other platinum (IV) complexes were evaluated for inhibitory activity against STAT DNA-binding in vitro.

A549 cells = assay: MTT assay, percent survival of A549 cells; assay type: cell-based; conditions: A549; for IC50: Table 2, linear trend from percent survival vs. concentration data of Table 1, read-out: Calculated IC 50 (uM concentration)
Protocol: 1. Prepare a suspension of A549 cells at 2×10^5 cells per mL in supplemented DMEM/F12 growth medium.
2. Plate 2×10^4 cells per well in a 96 well cell culture plate by adding 100 μL of stock suspension to each well.
3. For each platinum compound (already in solution), prepare a readily usable stock solution in DMEM/F12 medium.
4. For each compound generate triplicate trials of 0, 10, 20, 30, 40, 50, 60, and 70 μM concentration. This is achieved in situ by adding appropriate volumes of stock solution to each well along with the volume of untreated medium necessary to generate the desired concentration in a final volume of 200 μL.
5. Gently agitate plates to mix contents. Incubate at 37° C., 7% CO2 for 45 hours.
6. Add 20 μL of 5 mg/mL MTT solution (in PBS) to each well.
7. Gently agitate plates to mix contents and incubate an additional 3 hours to allow product development.
8. Remove plates from incubator and agitate to cause settling of formazan product.
9. Aspirate out liquid contents of each well using needle and syringe and discard.
10. Add 200 μL DMSO to each well to dissolve formazan product.
11. Agitate plates until all of the formazan product is in solution and no purple crystals remain on the bottom surface of the wells.
12. Read the absorbance of each well at […] using Varian software for Cary 50 UV-vis Spectrophotometer with fiber optic probe accessory.
(§1) MTT assays are used for the quantitative determination of cellular proliferation and activation and for the quantitation of in vitro tumor cell sensitivity to anti-cancer compounds. The assay is based on the cleavage of the yellow tetrazolium salt MTT into purple colored formazan by metabolically active cells. Solubilized formazan product can be photometrically quantitated using an ELISA plate reader. A decrease in the number of living cells results in a decrease in total metabolic activity which leads to a decrease in color formation. Platinum complexes of the present invention were tested in MTT assays using A549 cells to determine anti-cancer cell activity. […] FIGS. 1, 2, and 4 show percent survival versus platinum complex concentration in graphical form.
as §1, with “FIGS. 8, 9,” for “FIGS. 1, 2,”, “and 11” for “and 4”

T1 sequence (P42227 whole entry): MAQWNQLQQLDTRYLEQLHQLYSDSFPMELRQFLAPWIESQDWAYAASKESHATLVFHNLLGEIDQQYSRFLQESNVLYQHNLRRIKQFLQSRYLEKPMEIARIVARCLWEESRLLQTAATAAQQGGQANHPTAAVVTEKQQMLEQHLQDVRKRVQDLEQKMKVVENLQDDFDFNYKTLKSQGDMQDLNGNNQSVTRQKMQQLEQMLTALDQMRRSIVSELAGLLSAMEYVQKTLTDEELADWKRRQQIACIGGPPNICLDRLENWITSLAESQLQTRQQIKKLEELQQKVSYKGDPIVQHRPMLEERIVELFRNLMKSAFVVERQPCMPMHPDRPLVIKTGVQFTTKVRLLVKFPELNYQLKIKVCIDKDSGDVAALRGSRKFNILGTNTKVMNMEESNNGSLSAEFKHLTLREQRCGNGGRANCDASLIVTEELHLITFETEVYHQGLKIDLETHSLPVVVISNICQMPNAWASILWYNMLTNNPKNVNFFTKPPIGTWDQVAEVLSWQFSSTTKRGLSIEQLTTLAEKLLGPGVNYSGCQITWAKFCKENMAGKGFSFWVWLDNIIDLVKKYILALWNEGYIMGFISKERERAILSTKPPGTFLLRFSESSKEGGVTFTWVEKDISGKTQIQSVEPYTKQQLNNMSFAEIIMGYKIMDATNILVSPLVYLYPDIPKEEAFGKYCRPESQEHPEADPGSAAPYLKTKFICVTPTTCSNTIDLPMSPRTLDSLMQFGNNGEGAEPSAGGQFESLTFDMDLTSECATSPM

SMILES | Disruption of Stat3 activity / ability to bind its consensus binding sequence (Stat3) | Average Absorbance (A549 cells; Table 1, 10 μM) | Percent Survival (A549 cells; Table 1, 10 μM) | Average Absorbance (A549 cells; Table 1, 20 μM) | Percent Survival (A549 cells; Table 1, 20 μM) | Average Absorbance (A549 cells; Table 1, 30 μM) | Percent Survival (A549 cells; Table 1, 30 μM) | Average Absorbance (A549 cells; Table 1, 40 μM) | Percent Survival (A549 cells; Table 1, 40 μM) | Average Absorbance (A549 cells; Table 1, 50 μM) | Percent Survival (A549 cells; Table 1, 50 μM) | Average Absorbance (A549 cells; Table 1, 60 μM) | Percent Survival (A549 cells; Table 1, 60 μM) | IC50 (A549 cells) | Average Absorbance (A549 cells; Table 3, 10 μM) | Percent Survival (A549 cells; Table 3, 10 μM) | Average Absorbance (A549 cells; Table 3, 20 μM) | Percent Survival (A549 cells; Table 3, 20 μM) | Average Absorbance (A549 cells; Table 3, 30 μM) | Percent Survival (A549 cells; Table 3, 30 μM) | further results
Nc1cccc2c(=O)[nH][n]([Pt]([NH2])([NH2])([Cl])([Cl])[N+](=O)[O-])c(=O)c12 [CPA-51] | strongly disrupt Stat3 activity | 2.4925 | 105.5652% | 2.5760 | 109.1017% | 2.3214 | 98.3186% | 2.0616 | 87.3152% | 1.3869 | 58.7396% | 0.8807 | 37.3004% | 61.2 µM | 2.4744 | 101.2895% | 2.4868 | 101.7970% | 2.0998 | 85.9552% | Average Absorbance (A549 cells; Table 1, 70 μM): 1.0819; Percent Survival (A549 cells; Table 1, 70 μM): 45.8219%; Average Absorbance (A549 cells; Table 3, 40 μM): 1.4758; Percent Survival (A549 cells; Table 3, 40 μM): 60.4118%; Average Absorbance (A549 cells; Table 3, 50 μM): 0.9352; Percent Survival (A549 cells; Table 3, 50 μM): 38.2824%; Average Absorbance (A549 cells; Table 3, 60 μM): 0.7084; Percent Survival (A549 cells; Table 3, 60 μM): 28.9983%; Average Absorbance (A549 cells; Table 3, 70 μM): 0.7058; Percent Survival (A549 cells; Table 3, 70 μM): 28.8919%
CCN(CC)c1ccc2c(-c3ccccc3C(=O)O)c3ccc(=[N+](CC)CC)cc-3[o+]([Pt]([NH2])([NH2])([Cl])([Cl])[N+](=O)[O-])c2c1.[Cl-] [CPA-46] | strongly disrupt Stat3 activity | 2.4032 | 101.7831% | 2.2978 | 97.3190% | 2.2671 | 96.0188% | 1.8618 | 78.8531% | 1.0285 | 43.5602% | 0.7041 | 29.8208% | 52.9 µM | 2.5773 | 105.5017% | 2.4118 | 98.7269% | 1.9637 | 80.3840% | Average Absorbance (A549 cells; Table 3, 40 μM): 1.2044; Percent Survival (A549 cells; Table 3, 40 μM): 49.3021%; Average Absorbance (A549 cells; Table 3, 50 μM): 0.6282; Percent Survival (A549 cells; Table 3, 50 μM): 25.7153%; Average Absorbance (A549 cells; Table 3, 60 μM): 0.6446; Percent Survival (A549 cells; Table 3, 60 μM): 26.3867%; Average Absorbance (A549 cells; Table 3, 70 μM): 0.6165; Percent Survival (A549 cells; Table 3, 70 μM): 25.2364%
[NH2][Pt]([NH2])([Cl])([Cl])([Br])[N+](=O)[O-] [CPA-10] | strongly disrupt Stat3 activity |  |  |  |  |  |  |  |  |  |  |  |  |  |  |  |  |  |  |  | 
